Reference: US20230157950A1, “OROMUCOSAL FILM COMPOSITIONS COMPRISING EPINEPHRINE PARTICLES” (ReForm Therapeutics Ltd., priority 2021, published 2023)

Conditions: acetone, ethanol, methanol, isopropyl alcohol, alkaline water-based solvents, 25° C. and 45° C.

## CNC[C@H](O)c1ccc(O)c(O)c1 [Epinephrine base particles, Epinephrine base]
  time for which size and structure of epinephrine particles is maintained in solvents/dispersants: at least 6 hours
Up to 6 hours, SEM
  solubility of epinephrine particles in the selected solvents/dispersants: none or very limited solubility
